This is an account of results in PMC7287882, “Dual miRNases for Triple Incision of miRNA Target: Design Concept and Catalytic Performance” (Molecules, 2020).

The subject of assay [1] is miR-17. Briefly: Ribonuclease activity assay with DC or ON and RNase H, miR-17. The format is biochemical. The following applies: for total extent of miRNA cleavage in the presence of RNase H: miRNA 1 µM, DC or ON 20 µM, buffer (2) pH 7.8, 37 °C, at plateau, by 2 h. The method, then: (§1) It is known that DNA-like antisense oligonucleotides after binding to target RNAs form a substrate for intracellular endonuclease RNases H. RNA hydrolysis in RNA-DNA heteroduplex by RNase H1 occurs at a distance of 6–10 nucleotides from the 5′-end of RNA (approximately one turn of the helix). Our design of the Dual conjugates here was carried out in such a way to ensure that their heteroduplexes with the matching miRNA sequences could serve as potential substrates for RNase H. To achieve that, we ensured that the length of the oligonucleotide recognition motifs A and B within the DC was 8–10 nt, which was expected to be sufficient for interaction and cleavage by RNase H (see Figure 1 and Table 1). As indicated above, a few adenine aromatic basis within each recognition motifs A and B were replaced with 2-aminoadenines to enhance the hybridization ability of the DC with miRNA. […] In order to verify this, as well as to evaluate the ability of RNase H to contribute to the miRNA cleavage catalyzed by DC, we studied the kinetics of the target miRNA cleavage performed (1) by the DC alone; (2) by RNase H, when the target miRNA was hybridized with the nonconjugated Dual oligonucleotide (ON); and (3) by both DC and RNase H present in the same reaction mixture. The study was performed against miR-17, miR-155 and miR-21 using a 20-fold excess of DCs or respective oligonucleotides over the matching miRNA (see Table 1 for sequences).
(§2) Figure 6 Cleavage kinetics of 5′-[^32P]-labeled miRNAs by DCs and/or RNase H. (a,d,g). Radioautographs of 18% denaturing PAAG showing the profiles of cleavage of miR-17, miR-155 and miR-21, respectively. Duplexes formed by 5′-[^32P]-miRNA (1 µM) and DC or ON (20 µM) were incubated at 37 °C for 48–72 h. RNase H was taken in the concentration of 5 or 100 u/mL. Lanes Im and T1–imidazole ladder and partial RNA digestion with RNase T1, respectively; control–RNA was incubated in the absence of DC or ON and in the presence of RNase H (100 u/mL); (b,e,h) Time dependency of cleavage of miR-17, miR-155 and miR-21, respectively, by DCs and/or RNase H. Data are presented as mean ± s.e. *—indicates statistically significant difference with p < 0.05; (c,f,i). Positions of miR-17, miR-155 and miR-21 cleavage, respectively, induced by RNase H in duplex with ON (red arrows), and by combination of DC (black arrows) and RNase H. A–2-aminoadenine.
(§3) The reaction mixture (10 µL) containing 20 mM Tris-HCl, pH 7.8, 40 mM KCl, 8 mM MgCl2, 1 mM DTT, 0.02 mg/mL BSA, 800 cpm (Cherenkov’s counting) of [^32P]-miRNA, 1 µM unlabeled miRNA, 20 µM either DC or Dual oligonucleotide was incubated at 37 °C for 20 min then RNase H (5 or 100 U/mL) was added and the mixture was further incubated for 48 h. Aliquots were taken at 0, 1, 6, 24 and 48 h then the reaction was quenched, RNA cleavage products were collected and analyzed as described above.

Assay [2] relates to miR-17. Description: Gel-retardation assay, hybridization with miR-17. The format is binding. Conditions: 50 mM Tris-HCl pH 7.0, 200 mM KCl, 1 mM EDTA, 37 °C, 45 min, mean of 3. From the text: We carried out a comparative analysis of the hybridization properties of the developed DCs with the corresponding SCs, which were the products of the first stage of the DCs synthesis. As discussed above, each SC consisted of the corresponding oligonucleotide A, which was complementary to the 5′-region of the matching miRNA target, and the catalytic peptide [LRLRG]2, attached to the 5′-end of this oligonucleotide via a thiohexyl linker (linker 2). […] Indeed, the level of binding of DCs to their miRNA targets reached 96, 90, 75, 55% at equimolar concentration (1 μM), and 99, 96, 92 and 69% at 5-fold excess of DCs over miR-17, miR-18a, miR-21 and miR-155, respectively (Figure 2). […]
The reaction mixture (4 µL) containing 50 mM Tris-HCl, pH 7.0, 200 mM KCl and 1 mM EDTA, 100 cpm (Cherenkov’s counting) of [^32P]-miRNA, 1 μM unlabeled miRNA, a conjugate at a concentration ranging from 0.1 to 10 μM was incubated at 37 °C for 45 min and quenched by adding of a loading buffer (20% ficoll, 0.025% bromophenol blue, 0.025% xylene cyanol). […] Formation of the complex miRNA/conjugate was analyzed by electrophoresis in 15% native PAAG at 4 °C. The gels were analyzed using Molecular Imager FX. The extent of binding of conjugate to miRNA was determined as a ratio of radioactivity measured in the complex to the total radioactivity applied onto the gel lane.

For assay [3], the system named is miR-21. Briefly: Ribonuclease activity assay with DC or ON and RNase H, miR-21. In kind it is biochemical. The method, then:
as §1
as §2, with “Positions of miR-17, miR-155 and miR-21 cleavage, respectively, induced by RNase H in duplex with ON (red arrows), and by combination of DC (black arrows) and RNase H. A–2-aminoadenine.” left out
as §3

In the case of “CTACCTGC–linker 1–[GRLRL]2–linker 2–AAGCACTTTG [miRNA-17-DC, Dual oligonucleotide-peptide conjugate targeted to miR-17: catalytic peptide [LRLRG]2 between two 2-aminoadenine-containing oligodeoxyribonucleotides]”, the “total extent of miRNA cleavage in the presence of RNase H” value in assay [1] (RNase H 5 u/mL) is given as 44%; in assay [1] (RNase H 100 u/mL) it was 92%. For the same substance, the “total efficiency of cleavage in the complex with DC relative to the miRNA/ON complex” value in assay [1] (RNase H at both 5 and 100 u/mL) is reported as “more than 1.5 fold”. In assay [1] (after 1 h), the “increase in the rate of cleavage by DC with RNase H compared with DC alone” value was “up to 10 fold”. For the same substance, the “increase in the rate of cleavage by DC with RNase H compared with RNase H alone” value in assay [1] (after 1 h) was 1.5 fold. Also, the “level of binding of DC to miRNA target” value is 99% in assay [2] (5-fold excess of DC over miRNA (1 µM)) and 96% in assay [2] (equimolar, DC 1 µM : miRNA 1 µM, 15% native PAAG).
Turning to “TCAACATC–linker 1–[GRLRL]2–linker 2–GATAAGCTA [miRNA-21-DC, Dual oligonucleotide-peptide conjugate targeted to miR-21: catalytic peptide [LRLRG]2 between two 2-aminoadenine-containing oligodeoxyribonucleotides]”, in assay [3] (RNase H 5 u/mL, versus DC alone), the “increase in rate of cleavage by DC in the presence of RNase H” value worked out at 4 fold. Besides, in assay [3] (RNase H 5 u/mL, miRNA 1 µM, DC 20 µM, buffer (2), 37 °C), the “total extent of cleavage by DC and RNase H” value stood at 40%. Besides, in assay [3] (RNase H 100 u/mL), the “increase in rate of cleavage compared with DC alone” value was 20 fold. In addition, in assay [3] (RNase H 100 u/mL, completed in the first hour of incubation), the “cleavage by DC and RNase H” value is given as 100%.
